From BigSolDB 2.1

C#C[C@]1(O)C=C[C@H]2[C@@H]3CCC4=CC(=O)CC[C@@H]4[C@H]3CC[C@@]21CC
solubility (mole fraction)
Conditions	283.15 K	288.15 K	293.15 K	298.15 K	303.15 K	308.15 K	313.15 K	318.15 K	323.15 K
in 2-butanone	0.00956	0.0114	0.0134	0.0159	0.0188	0.0221	0.0258	0.0302	0.0352
in acetone	0.00379	0.00499	0.00654	0.00862	0.0113	0.0147	0.0189	0.024	0.0302
in acetonitrile	0.00262	0.00306	0.00358	0.00418	0.00487	0.00566	0.00655	0.00754	0.00868
in ethanol	0.00314	0.00387	0.00473	0.00577	0.00701	0.0085	0.0102	0.0123	0.0147
in ethyl acetate	0.0146	0.0161	0.018	0.0194	0.0211	0.0228	0.0247	0.0264	0.0282
in isopropanol	0.00155	0.00199	0.0026	0.00328	0.00413	0.00519	0.00648	0.00809	0.0101
in isopropyl acetate	0.0174	0.0213	0.0259	0.031	0.0371	0.044	0.052	0.061	0.0711
in methanol	0.00457	0.0055	0.00655	0.00777	0.00917	0.0108	0.0125	0.0145	0.0168
in n-butanol	0.00395	0.00465	0.00549	0.00642	0.0075	0.00875	0.0102	0.0118	0.0136
in n-propanol	0.00376	0.00461	0.0056	0.00678	0.00817	0.00979	0.0117	0.014	0.0166
in water	6.83e-06	7.69e-06	8.93e-06	1.06e-05	1.23e-05	1.42e-05	1.62e-05	1.87e-05	2.16e-05
